{
  "source": "patent US6414024B1",
  "about": "“GABA and L-glutamic acid analogs for antiseizure treatment” (Northwestern University, priority 1990, dated 2002)",
  "key": {"[1]": {"target": "T1, Gabapentin Receptor (Rattus norvegicus, UniProt P54290)", "T1 construct": "partially purified synaptic plasma membranes were prepared from rat neocortex; from tissue; host or cells: rat neocortex synaptic plasma membranes", "T1 sequence (P54290 25-1091)": "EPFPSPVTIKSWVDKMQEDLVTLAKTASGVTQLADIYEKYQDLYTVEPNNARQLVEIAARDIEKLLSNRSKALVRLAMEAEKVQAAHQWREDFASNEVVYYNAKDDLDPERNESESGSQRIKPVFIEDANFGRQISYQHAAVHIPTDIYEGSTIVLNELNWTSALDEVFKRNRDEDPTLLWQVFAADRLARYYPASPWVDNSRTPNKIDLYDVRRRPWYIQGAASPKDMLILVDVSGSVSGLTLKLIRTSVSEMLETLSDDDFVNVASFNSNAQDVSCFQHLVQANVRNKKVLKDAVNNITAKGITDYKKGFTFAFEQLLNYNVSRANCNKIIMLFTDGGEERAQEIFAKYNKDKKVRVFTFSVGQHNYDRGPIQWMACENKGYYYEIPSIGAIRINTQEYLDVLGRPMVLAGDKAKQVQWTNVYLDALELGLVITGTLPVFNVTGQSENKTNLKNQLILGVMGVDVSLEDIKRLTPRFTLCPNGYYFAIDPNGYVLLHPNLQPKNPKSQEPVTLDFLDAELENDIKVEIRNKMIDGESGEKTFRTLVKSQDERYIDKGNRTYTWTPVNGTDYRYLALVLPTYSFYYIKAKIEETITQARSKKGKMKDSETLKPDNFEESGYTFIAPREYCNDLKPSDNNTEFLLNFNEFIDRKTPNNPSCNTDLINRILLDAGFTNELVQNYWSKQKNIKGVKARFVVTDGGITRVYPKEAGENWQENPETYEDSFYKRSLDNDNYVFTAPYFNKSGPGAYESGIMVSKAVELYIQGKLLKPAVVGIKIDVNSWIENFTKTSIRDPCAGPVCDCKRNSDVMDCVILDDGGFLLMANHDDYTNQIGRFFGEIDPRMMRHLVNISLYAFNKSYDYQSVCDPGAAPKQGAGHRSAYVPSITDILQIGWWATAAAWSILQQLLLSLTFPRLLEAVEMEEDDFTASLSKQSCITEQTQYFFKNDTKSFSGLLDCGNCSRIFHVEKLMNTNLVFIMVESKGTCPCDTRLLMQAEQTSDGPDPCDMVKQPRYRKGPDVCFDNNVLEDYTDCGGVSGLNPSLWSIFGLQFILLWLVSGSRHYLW", "assay": "Gabapentin receptor binding, displacement of [3H]-gabapentin", "description": "For binding studies, partially purified synaptic plasma membranes were prepared from rat neocortex using sucrose density gradients. The cerebral cortex of 10 rats was dissected from the rest of the brain and homogenized in 10 volumes (weight/volume) of ice-cold 0.32 M sucrose in 5 mM tris-acetate (pH 7.4) using a glass homogenizer fitted with a teflon pestle (10-15 strokes at 200 rpm). The homogenate was centrifuged at 100 g for 10 minutes and the supernatant collected and kept on ice. The pellet (PI) was rehomogenized in 20 mL of tris-sucrose and the homogenate recentrifuged. The combined supernatants were centrifuged at 21,500 g for 20 minutes. The pellet (P2) was resuspended in 1.2 M tris-sucrose and 15 mL of this mixture was added to ultracentrifuge tubes. On to this, 10 mL of 0.9 M sucrose was layered followed by a final layer of 5 mM tris-acetate, pH 8.0. Tubes were centrifuged at 100,000 g for 90 minutes. The synaptic plasma membranes located at the 0.9/1.2 M sucrose interface. were collected, resuspended in 50 mL of 5 mM tris-acetate, pH 7.4, and centrifuged at 48,000 g. The final pellet was resuspended in 50 mL of tris-acetate, pH 7.4, aliquoted, and then frozen until use.\nThe assay tissue (0.1 to 0.3 mg protein) was incubated with […] [^3H]-gabapentin in 10 mM HEPES buffer (pH 7.4 at 20° C., sodium free) in the presence of varying concentrations of test compound for 30 minutes at room temperature, before filtering onto GFB filters under vacuum. Filters were washed 3 times with 5 mL of ice cold 100 mM NaCl solution and dpm bound to filters was determined using liquid scintillation counting. Nonspecific binding was defined by that observed in the presence of […] gabapentin."}, "[2]": {"test_system": "maximal electroshock seizures in mice", "assay": "Maximal electroshock in mice", "assay_type": "in vivo", "conditions": "mouse", "text": "For anticonvulsant testing, male CF-1 strain mice (20-25 g) and male Sprague-Dawley rats (75-115 g) were obtained from Charles River Laboratories and were maintained with free access to food and water before testing. Maximal electroshock was delivered with corneal electrodes by conventional methods (Krall, supra, 1975) except that low-intensity electroshock with mice consisted of 17 mA of current rather than the conventional 50 mA (zero to peak). Briefly, mice were given test substance and were tested for prevention of seizures by application of electrical current to the corneas by 2 metal electrodes covered with gauze and saturated with 0.9% sodium chloride. Electroshock stimulation was delivered by a constant-current device that produced 60 Hz sinusoidal electrical current for 0.2 seconds. For rats, maximal electroshock stimulation consisted of 120 mA of current. Ataxia in mice was assessed by the inverted screen procedure in which mice were individually placed on a 4.0-inch square of wire mesh that was subsequently inverted (Coughenour, supra, 1978). Any mouse that fell from the wire mesh during a 60 second test period was rated as ataxic.\nAll drugs were freely soluble in aqueous media. For in vivo studies, drug solutions were made in 0.9% sodium chloride and given in a volume of 1 mL/100 g body weight. Intravenous administration was given by bolus injection into the retro-orbital sinus in mice. Oral administrations were by intragastric gavage."}, "[3]": {"assay": "Ataxia in mice (inverted screen procedure)", "conditions": "male, CF-1, in vivo, mouse", "description": "(§1) For anticonvulsant testing, male CF-1 strain mice (20-25 g) and male Sprague-Dawley rats (75-115 g) were obtained from Charles River Laboratories and were maintained with free access to food and water before testing. […] Briefly, mice were given test substance and were tested for prevention of seizures by application of electrical current to the corneas by 2 metal electrodes covered with gauze and saturated with 0.9% sodium chloride. Electroshock stimulation was delivered by a constant-current device that produced 60 Hz sinusoidal electrical current for 0.2 seconds. For rats, maximal electroshock stimulation consisted of 120 mA of current. […] Any mouse that fell from the wire mesh during a 60 second test period was rated as ataxic."}, "[4]": {"test_system": "tonic hindlimb extensor seizures in mice", "assay": "Threshold maximal (low-intensity) electroshock, tonic extensor seizures", "assay_type": "in vivo", "conditions": "for ED50: IV, mouse, 17 mA", "description": "Threshold maximum electroshock is an animal model test for generalized seizures that is similar to that of Piredda S G, et al, Pharmacol. and Exptl. Therap. […] The methods for this test are described as follows.\nMale CF-1 mice (22-30 g) were allowed free access to food and water prior to testing. For screening, groups of five mice were given a compound intravenously at doses of 30, 100, and 300 mg/kg and tested at 0.5, 2.0, and 4.0 hours after dosing. Drugs were either dissolved in 0.9% saline or suspended in 0.2% methylcellulose. Animals were shocked with corneal electrodes (see below) and observed for tonic hindlimb extensor seizures. Absence of hindlimb extension was taken as an anticonvulsant effect.\nThe electroshock apparatus delivered a 60 Hz sine wave with a current amplitude of 14 mA (peak-to-peak) for 0.2 seconds.\nas §1"}, "[5]": {"conditions": "IV, read-out: IV Mouse Maximal Electroshock (ED50)"}, "[6]": {"conditions": "PO, read-out: PO Mouse Maximal Electroshock (ED50)"}, "[7]": {"conditions": "IV, read-out: IV Mouse Ataxia (ED50)"}},
  "note": "Where two headings read alike, the source gives them in different places.",
  "data": [
    {"smiles": "CC(C)CC(CN)CC(=O)O", "note": "(racemic) [(R,S)-i-C4H9, H, 4-amino-3-(2-methylpropyl)butanoic acid]", "values": [
      {"measurement": "IC50", "setting": "[1]", "value": 100, "unit": "nM"},
      {"measurement": "ED50", "setting": "[2]; [5]", "value": 10, "unit": "mg/kg"},
      {"measurement": "ED50", "setting": "[2]; [6]", "value": 47, "unit": "mg/kg"},
      {"measurement": "ED50", "setting": "[3]; [7]", "value": "> 100", "unit": "mg/kg"},
      {"measurement": "ED50", "setting": "[4]", "value": 4.8, "unit": "mg/kg"},
      {"measurement": "time of maximum protection, threshold maximal electroshock", "setting": "[4]; mice, 10 mg/kg intravenously, tested 1 hour to 8 hours", "value": 2, "unit": "h"},
      {"measurement": "# Protected, threshold maximal electroshock", "setting": "[4]; mice, 10 mg/kg intravenously, time of testing 1 hr.", "value": "2/10"},
      {"measurement": "# Protected, threshold maximal electroshock", "setting": "[4]; mice, 10 mg/kg intravenously, time of testing 2 hr.", "value": "8/10"},
      {"measurement": "# Protected, threshold maximal electroshock", "setting": "[4]; mice, 10 mg/kg intravenously, time of testing 4 hr.", "value": "4/10"},
      {"measurement": "# Protected, threshold maximal electroshock", "setting": "[4]; mice, 10 mg/kg intravenously, time of testing 8 hr.", "value": "2/10"},
      {"measurement": "calculated EDSO, threshold maximal electroshock dose response", "setting": "[4]; mice, intravenously, two hour testing time", "value": 2.07, "unit": "mg/kg"}
    ]},
    {"smiles": "CC(C)C[C@@H](CN)CC(=O)O", "note": "[(R)-IBG, (R)(−)-4-amino-3-(2-methylpropyl)butanoic acid]", "values": [
      {"measurement": "IC50", "setting": "[1]", "value": 860, "unit": "nM"},
      {"measurement": "ED50", "setting": "[2]; [5]", "value": "> 100", "unit": "mg/kg"},
      {"measurement": "ED50", "setting": "[3]; [7]", "value": "> 100", "unit": "mg/kg"},
      {"measurement": "ED50", "setting": "[4]", "value": "> 100", "unit": "mg/kg"}
    ]},
    {"smiles": "CC(C)C[C@H](CN)CC(=O)O", "note": "[(S)-IBG, (S)-(+)-4-Amino-3-(2-methylpropyl)butanoic Acid]", "values": [
      {"measurement": "IC50", "setting": "[1]", "value": 44, "unit": "nM"},
      {"measurement": "ED50", "setting": "[2]; [5]", "value": 18, "unit": "mg/kg"},
      {"measurement": "ED50", "setting": "[2]; [6]", "value": 12, "unit": "mg/kg"},
      {"measurement": "ED50", "setting": "[3]; [7]", "value": "> 300", "unit": "mg/kg"},
      {"measurement": "ED50", "setting": "[4]", "value": 4, "unit": "mg/kg"}
    ]},
    {"smiles": "NCC1(CC(=O)O)CCCCC1", "note": "[Gabapentin, gabapentin, reference compound]", "values": [
      {"measurement": "ED50", "setting": "[2]; [5]", "value": 75, "unit": "mg/kg"},
      {"measurement": "ED50", "setting": "[2]; [6]", "value": 200, "unit": "mg/kg"},
      {"measurement": "ED50", "setting": "[3]; (IP), read-out: Mouse Ataxia (ED50)", "value": "> 100", "unit": "mg/kg"},
      {"measurement": "ED50", "setting": "[4]", "value": 4.3, "unit": "mg/kg"}
    ]}
  ]
}
